Data: publication PMC3686551 (Tuberculosis (Edinburgh, Scotland), 2013)

Target: Mtb FtsZ (Mycobacterium tuberculosis, UniProt P9WN95)
Assay: FtsZ polymerization inhibition
Assay type: biochemical

Chain of Mtb FtsZ (P9WN95 whole entry): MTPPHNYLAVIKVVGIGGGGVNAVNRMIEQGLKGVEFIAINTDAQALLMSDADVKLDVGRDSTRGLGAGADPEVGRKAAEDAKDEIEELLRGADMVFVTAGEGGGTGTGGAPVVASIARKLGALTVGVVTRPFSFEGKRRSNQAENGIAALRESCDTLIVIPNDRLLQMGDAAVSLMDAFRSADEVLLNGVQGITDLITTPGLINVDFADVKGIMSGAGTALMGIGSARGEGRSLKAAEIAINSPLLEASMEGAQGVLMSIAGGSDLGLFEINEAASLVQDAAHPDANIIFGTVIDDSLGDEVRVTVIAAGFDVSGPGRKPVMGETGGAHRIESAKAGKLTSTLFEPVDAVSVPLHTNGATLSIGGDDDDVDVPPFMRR

## CCCOc1ccc(N(C)c2cc(C)nc3ccc(Cl)cc23)cc1 [compound 3]
  IC50: > 100 µM
